According to publication PMC8197275, “Novel Tdp1 Inhibitors Based on Adamantane Connected with Monoterpene Moieties via Heterocyclic Fragments” (Molecules, 2021):
Read-outs that look alike come from different tables or passages of the source.

Experiments:
HCT-116 cells = assay: Sensitizing of HCT-116 cells to topotecan by Tdp1 inhibitors; type: cell-based, human; conditions: for HCT116 CC50 of topotecan with Tdp1 inhibitor: human, 72 h
Description: (§1) The potential for sensitizing the cancer cell lines to topotecan using the Tdp1 inhibitors was investigated using the MTT assay. Neutralizing the enzymatic activity of Tdp1 by blocking access to its catalytic site using a small molecule should sensitize the cytotoxic potential of topotecan, since the complex of Top1 with DNA cannot be unraveled. […] Nontoxic concentrations of the adamantane derivatives (5 μM) were used for the HeLa cell line; the dose response for topotecan was measured and the corresponding CC50 values were derived, and the results are shown in Figure 4 for 20c and in Table 2 for all the derivatives.
(§2) For HeLa cells, increased cytotoxicity was seen when the adamantanes and topotecan were combined. […] The combination index (CI) for different concentrations of topotecan and 20c at 5 μM was in the range 0.49–0.82, and at 10 μM of 20c, it was 0.23–0.78. This indicates a synergistic effect of topotecan and 20c. The CI values were calculated with the CompuSyn version 1.0 software. For the HCT-116 cells, the synergistic effects of the compounds were different than for the HeLa cells. […] The CI plot at a different fraction affected (Fa) was determined for topotecan (5, 15, 150, 500 and 1500 nM) and 20g (1, 3, 10, 20 μM). The CI values for most of the combinations correspond to a synergistic effect (CI < 1, see Figure S3 in the Supplementary Materials).
(§3) The human cervical cancer HeLa cells were grown in Iscove’s modified Dulbecco’s medium (IMDM) with 40 μg/mL gentamicin, 50 IU/mL penicillin, 50 μg/mL streptomycin (MP Biomedicals), and 10% of fetal bovine serum (Biolot) in a 5% CO2 atmosphere. Human colon adenocarcinoma HCT-116, rectum adenocarcinoma SW837, and human embryo kidney HEK293A cell lines were cultured in DMEM medium (Invitrogen) supplemented with 10% fetal bovine serum (FBS) (Invitrogen), penicillin (100 units/mL), and streptomycin (100 μg/mL), at 37 °C, 5% CO2 in a humid atmosphere. After the formation of a 30–50% monolayer, the tested compounds were added to the medium. The volume of the added reagents was 1/100 of the total volume of the culture medium, and the amount of DMSO was 1% of the final volume. Control cells were grown in the presence of 1% DMSO. The cell culture was monitored for 3 days.
(§4) The medium was removed, and the dark blue crystals of formazan were dissolved in 100 μL of isopropanol. The absorbance at 570 nm (peak) and 620 nm (baseline) was determined using a microplate reader Multiscan FC (Thermo Fisher Scientific Corporation). All concentrations were performed in triplicate. The values are given as mean ± standard deviation (S.D.) values, and all measurements were repeated three times.

[1] = Cytotoxicity, EZ4U Cell Proliferation and Cytotoxicity Assay, HeLa; type: cell-based; conditions: human, HeLa cells, cervical cancer HeLa
Description: (§5) The cytotoxicity of compounds was investigated using HeLa (cervical cancer), SW837 and HCT-116 (colon cancers) cell lines, and the results are shown in Table 1 and Figure S2 in the Supplementary Materials. […] In general, the HeLa cell line was less sensitive to the inhibitors than the HCT-116 and SW837 cells.
as §3
(§6) The cytotoxicity of the compounds to HeLa and HEK293A cell lines was examined using the EZ4U Cell Proliferation and Cytotoxicity Assay (Biomedica, Austria), according to the manufacturer’s protocols.

HeLa cells = assay: Sensitizing of HeLa cells to topotecan by Tdp1 inhibitors; type: cell-based, human; conditions: for HeLa CC50 of topotecan with Tdp1 inhibitor: human, 3 days, 5 µM
Description: as §1, §2, §3, §6

[2] = Cytotoxicity, MTT test, SW837; type: cell-based; conditions: human, SW837 cells; colorectal SW837, 72 h MTT
Description: as §5, §3, §4

Tdp1 [3] = biological target: T1, Tdp1 (Homo sapiens, UniProt Q9NUW8); assay: Tdp1 cleavage activity, fluorophore quencher-coupled DNA-biosensor, real-time; type: biochemical; parameters: inferred from the pET 16B vector and Ni-chelating resin purification; made in house; conditions: recombinant Tdp1 1.5 nM, 50 nM biosensor; read-out: IC50 (Tdp1 activity inhibition at 50%)
Description: The recombinant Tdp1 was purified to homogeneity by chromatography on Ni-chelating resin and phosphocellulose P11 as described, using plasmid pET 16B-Tdp1, kindly provided by Dr. K.W. Caldecott (University of Sussex, United Kingdom). Tdp1 activity was detected as described in the work. Briefly, we measured the fluorescence intensity after quencher removal from a fluorophore quencher–coupled DNA oligonucleotide catalyzed by Tdp1. The reaction was carried out at different concentrations of inhibitors. The control samples contained 1% DMSO. The reaction mixtures contained Tdp1 buffer (50 mM Tris-HCl pH 8.0, 50 mM NaCl, and 7 mM β-mercaptoethanol), 50 nM biosensor, and an inhibitor being tested. The reaction was started by the addition of purified Tdp1 (1.5 nM). The biosensor (5′-[FAM] AAC GTC AGGGTC TTC C [BHQ]-3′) was synthesized in the Laboratory of Biomedical Chemistry at the Institute of Chemical Biology and Fundamental Medicine (Novosibirsk, Russia).
The reactions were incubated on a POLARstar OPTIMA fluorimeter (BMG LAB-TECH, GmbH) to measure fluorescence every 55 s (ex. 485 nm/em. 520 nm) during the linear phase (here, data are from minute 0 to minute 8). The values of IC50 were determined using a six-point concentration response curve in a minimum of three independent experiments, and were calculated using MARS Data Analysis 2.0 (BMG LABTECH).

[4] = Cytotoxicity, MTT test, HCT-116; type: cell-based; conditions: human, HCT-116 cells; colorectal HCT-116, 72 h MTT
Description: as §5, §3, §4

Tdp1 [5] = biological target: T1, Tdp1; parameters: inferred from the pET 16B vector and Ni-chelating resin purification; made in house; conditions: cited from earlier work

T1 sequence (Q9NUW8 whole entry): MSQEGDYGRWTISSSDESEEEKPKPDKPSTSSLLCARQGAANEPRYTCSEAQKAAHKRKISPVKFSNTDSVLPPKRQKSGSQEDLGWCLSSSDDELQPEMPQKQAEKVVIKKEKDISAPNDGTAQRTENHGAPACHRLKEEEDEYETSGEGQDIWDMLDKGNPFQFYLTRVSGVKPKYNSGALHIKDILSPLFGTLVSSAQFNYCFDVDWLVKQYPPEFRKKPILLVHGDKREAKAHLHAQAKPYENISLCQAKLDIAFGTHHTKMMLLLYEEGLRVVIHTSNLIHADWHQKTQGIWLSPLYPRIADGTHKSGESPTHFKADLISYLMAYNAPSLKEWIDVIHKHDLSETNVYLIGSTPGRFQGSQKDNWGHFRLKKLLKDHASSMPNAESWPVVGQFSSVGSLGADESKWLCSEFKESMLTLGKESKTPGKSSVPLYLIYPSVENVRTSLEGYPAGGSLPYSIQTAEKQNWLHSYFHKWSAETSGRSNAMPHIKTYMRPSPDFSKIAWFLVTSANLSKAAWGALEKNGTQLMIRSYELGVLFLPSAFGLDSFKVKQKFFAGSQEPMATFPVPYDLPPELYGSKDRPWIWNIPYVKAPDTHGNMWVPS

| IC50 (Tdp1 [3]) [µM] | Compound | CC50 at 3 days [1] [µM] | HeLa CC50 of topotecan with Tdp1 inhibitor (HeLa cells) [µM] | CC50 at 72 h [2] [µM] | CC50 at 72 h [4] [µM] | further results |
| --- | --- | --- | --- | --- | --- | --- |
| 5.6 ± 0.6 | CC(C)=CCC/C(C)=C\CSc1n[nH]c(C23CC4CC(CC(C4)C2)C3)n1 [20d, 5-(Adamantan-1-yl)-3-(((Z)-3,7-dimethylocta-2,6-dien-1-yl)thio)-1H-1,2,4-triazole] | 31 ± 11 | 5.4 | 17 ± 5 | 20 ± 9 | HCT116 CC50 of topotecan with Tdp1 inhibitor (HCT-116 cells; 15 µM): 689.0 (15) nM |
| 7.5 ± 1.8 | CC1(C)[C@H]2CC=C(CSc3n[nH]c(C45CC6CC(CC(C6)C4)C5)n3)[C@@H]1C2 [20f, 5-(Adamantan-1-yl)-3-((((1R,5S)-6,6-dimethylbicyclo[3.1.1]hept-2-en-2-yl)methyl)thio)-1H-1,2,4-triazole] | 15 ± 2 | 2.8 | 46 ± 6 | 54 ± 5 | HCT116 CC50 of topotecan with Tdp1 inhibitor (HCT-116 cells; 25 µM): 715.0 (25) nM |
| 1.5 ± 0.3 | CC(C)=CCC[C@H](C)CCSc1n[nH]c(C23CC4CC(CC(C4)C2)C3)n1 [20b, 5-(Adamantan-1-yl)-3-(((S)-3,7-dimethyloct-6-en-1-yl)thio)-1H-1,2,4-triazole] | > 100 |  | 41 ± 4 | > 100 | HCT116 CC50 of topotecan with Tdp1 inhibitor (HCT-116 cells; 20 µM): 575.3 (20) nM |
| 0.54 ± 0.09 | CC(C)CCCC(C)CCSc1n[nH]c(C23CC4CC(CC(C4)C2)C3)n1 (stereo not drawn) [20a, 5-(Adamantan-1-yl)-3-((3,7-dimethyloctyl)thio)-1H-1,2,4-triazole] | 85 ± 23 | 4.5 | 52 ± 6 | 27 ± 6 | HCT116 CC50 of topotecan with Tdp1 inhibitor (HCT-116 cells; 20 µM): 650.0 (20) nM |
| > 15 | CC1(C)[C@H]2CC=C(CCNC(=O)C34CC5CC(CC(C5)C3)C4)[C@@H]1C2 [28g, reference compound] |  |  |  |  |  |

Further lines, the compound ahead of its results:

| Compound | IC50 (Tdp1 [3]) [µM] | CC50 at 3 days [1] [µM] | HeLa CC50 of topotecan with Tdp1 inhibitor (HeLa cells) [µM] | CC50 at 72 h [2] [µM] | CC50 at 72 h [4] [µM] | further results |
| --- | --- | --- | --- | --- | --- | --- |
| CC(C)CCCC(C)CC(=O)Nc1nnc(C23CC4CC(CC(C4)C2)C3)s1 (stereo not drawn) [25a, N-(5-(Adamantan-1-yl)-1,3,4-thiadiazol-2-yl)-3,7-dimethyloctanamide] | 0.35 ± 0.05 | > 100 | 4.9 | > 100 | > 100 | HCT116 CC50 of topotecan with Tdp1 inhibitor (HCT-116 cells; 45 µM): 455.7 (45) nM |
| C=C(C)[C@@H]1CC=C(CSc2n[nH]c(C34CC5CC(CC(C5)C3)C4)n2)CC1 [20e, 5-(Adamantan-1-yl)-3-((((S)-4-(prop-1-en-2-yl)cyclohex-1-en-1-yl)methyl)thio)-1H-1,2,4-triazole] | 6.2 ± 2.2 | 24 ± 16 |  | 40 ± 4 | 15 ± 5 | HCT116 CC50 of topotecan with Tdp1 inhibitor (HCT-116 cells; 15 µM): 392.0 (15) nM |
| C[C@@H]1CC[C@@H]2[C@@H](C1)O[C@@H](c1ccc(NC(=O)c3cccc4ccccc34)s1)C[C@]2(C)O [compound 5] |  |  |  |  |  | IC50 (Tdp1 [5]): 2 µM |
| CC1(C)[C@H]2CC=C(C(=O)NC34CC5CC(CC(C5)C3)C4)[C@@H]1C2 [26c, reference compound] | > 15 |  |  |  |  |  |
| CC(C)=CCCC(C)CC1N2CC3(C)CN1CC(C)(C2)C3=O (stereo not drawn) [compound 3] |  |  |  |  |  | IC50 (Tdp1 [5]): ~15 µM |
| CC1(C)[C@H]2CC=C(C(=O)Nc3nnc(C45CC6CC(CC(C6)C4)C5)s3)[C@@H]1C2 [25c, (1R,5S)-N-(5-(Adamantan-1-yl)-1,3,4-thiadiazol-2-yl)-6,6-dimethylbicyclo[3.1.1]hept-2-ene-2-carboxamide] | 0.45 ± 0.09 | > 100 | 3.6 | > 100 | > 100 | HCT116 CC50 of topotecan with Tdp1 inhibitor (HCT-116 cells; 25 µM): 486.0 (25) nM |
| C[C@@H]1CC[C@@H]2[C@@H](C1)O[C@@H](c1ccc(NC(=O)C34CC5CC(CC(C5)C3)C4)s1)C[C@]2(C)O [compound 13] |  |  |  |  |  | IC50 (Tdp1 [5]): 1.2 µM |
| CC(C)CCCC(C)CCNC(=O)C12CC3CC(CC(C3)C1)C2 (stereo not drawn) [28a, reference compound] | > 15 |  |  |  |  |  |
| CC[C@@]1(O)C(=O)OCc2c1cc1n(c2=O)Cc2cc3c(CN(C)C)c(O)ccc3nc2-1 [Topotecan, topotecan, reference compound] |  |  |  |  |  | CC50 (HCT-116 cells; Homo sapiens, HCT-116, topotecan alone, read-out: HCT116 CC50 of topotecan): 0.715 µM; CC50 (HeLa cells; Homo sapiens, HeLa, topotecan alone): 6 µM |
